From the NIST ThermoML archive (doi:10.1016/j.jct.2008.06.016)
± gives the expanded uncertainty stated by the source.

Test: molar heat capacity at constant pressure
Details: 101.33 kPa, Crystal, Small sample (50 mg) DSC

NC(=O)c1ccccc1O [2-hydroxybenzamide]
Details | molar heat capacity at constant pressure [J/K/mol]
280.4 K | 124.1 ± 1.9
285.4 K | 126.3 ± 2
290.4 K | 128.7 ± 2
295.4 K | 130.9 ± 2
300.4 K | 133.1 ± 2.1
305.4 K | 135.6 ± 2.1
310.4 K | 138 ± 2.2
315.4 K | 140.5 ± 2.2
320.4 K | 142.9 ± 2.2
325.4 K | 145.5 ± 2.2
330.4 K | 148.1 ± 2.3
335.4 K | 150.5 ± 2.3
340.4 K | 153.1 ± 2.4
345.4 K | 155.6 ± 2.4
350.4 K | 158.2 ± 2.4
355.4 K | 160.6 ± 2.5
360.4 K | 163.3 ± 2.5
365.4 K | 165.6 ± 2.6
370.4 K | 168.1 ± 2.6
375.4 K | 170.3 ± 2.7
380.4 K | 172.9 ± 2.7
385.4 K | 175.4 ± 2.7
390.4 K | 177.9 ± 2.7
395.4 K | 180.6 ± 2.8

O=C(O)c1ccccc1O [2-hydroxybenzoic acid]
Details | molar heat capacity at constant pressure [J/K/mol]
280.4 K | 128.5 ± 2
285.5 K | 130 ± 2
290.5 K | 131.6 ± 2.1
295.4 K | 133.5 ± 2.1
300.4 K | 135.4 ± 2.1
305.4 K | 137.4 ± 2.2
310.4 K | 139.4 ± 2.2
315.4 K | 141.4 ± 2.2
320.4 K | 143.5 ± 2.2
325.4 K | 145.5 ± 2.2
330.4 K | 147.6 ± 2.3
335.4 K | 149.8 ± 2.3
340.4 K | 151.8 ± 2.3
345.4 K | 154.1 ± 2.4
350.4 K | 156.2 ± 2.4
355.4 K | 158.2 ± 2.4
360.4 K | 160.3 ± 2.5
365.4 K | 162.3 ± 2.5
370.4 K | 164.2 ± 2.6
375.4 K | 165.9 ± 2.6
380.4 K | 168 ± 2.6
385.4 K | 170.1 ± 2.7
390.4 K | 172.1 ± 2.7
395.5 K | 173.8 ± 2.7
400.5 K | 175.6 ± 2.7
405.5 K | 177.5 ± 2.7

O=C(O)c1cccc(O)c1 [3-hydroxybenzoic acid]
Details | molar heat capacity at constant pressure [J/K/mol]
280.4 K | 134.6 ± 2.1
285.5 K | 136.8 ± 2.1
290.5 K | 138.9 ± 2.2
295.4 K | 141.2 ± 2.2
300.4 K | 143.5 ± 2.2
305.4 K | 145.8 ± 2.2
310.4 K | 147.9 ± 2.3
315.4 K | 150.2 ± 2.3
320.4 K | 152.7 ± 2.3
325.5 K | 155 ± 2.4
330.5 K | 157.4 ± 2.4
335.5 K | 159.7 ± 2.5
340.5 K | 162.2 ± 2.5
345.5 K | 164.5 ± 2.6
350.4 K | 166.9 ± 2.6
355.4 K | 169.1 ± 2.7
360.4 K | 171.3 ± 2.7
365.4 K | 173.7 ± 2.7
370.4 K | 175.9 ± 2.7
375.4 K | 177.9 ± 2.7
380.4 K | 180.8 ± 2.8
385.4 K | 183.8 ± 2.8
390.5 K | 186.3 ± 2.9
395.5 K | 188.7 ± 2.9
400.5 K | 190.6 ± 3
405.5 K | 192.6 ± 3
410.5 K | 194.6 ± 3
415.5 K | 196.6 ± 3.1
420.5 K | 198.3 ± 3.1
425.5 K | 200.3 ± 3.1
430.5 K | 202.5 ± 3.2
435.5 K | 205 ± 3.2
440.5 K | 207.5 ± 3.2
445.5 K | 209.9 ± 3.2
450.5 K | 212.1 ± 3.3
455.5 K | 214.8 ± 3.3
460.4 K | 218.8 ± 3.4

O=C(O)c1ccc(O)cc1 [4-hydroxybenzoic acid]
Details | molar heat capacity at constant pressure [J/K/mol]
280.8 K | 138.9 ± 2.2
285.8 K | 141.3 ± 2.2
290.8 K | 143.5 ± 2.2
295.8 K | 145.7 ± 2.2
300.7 K | 148 ± 2.3
305.8 K | 149.7 ± 2.3
310.8 K | 151.8 ± 2.3
315.8 K | 154.6 ± 2.4
320.8 K | 156.4 ± 2.4
325.8 K | 158.7 ± 2.5
330.8 K | 161.4 ± 2.5
335.8 K | 163.8 ± 2.6
340.8 K | 166.3 ± 2.6
345.8 K | 168.6 ± 2.6
350.8 K | 171.1 ± 2.7
355.8 K | 173.4 ± 2.7
360.8 K | 175.5 ± 2.7
365.7 K | 177.8 ± 2.7
370.7 K | 180 ± 2.8
375.7 K | 182 ± 2.8
380.8 K | 184.4 ± 2.8
385.8 K | 186.7 ± 2.9
390.8 K | 188.9 ± 2.9
395.8 K | 191 ± 3
400.8 K | 193.1 ± 3
405.8 K | 195.1 ± 3
410.8 K | 197 ± 3.1
415.8 K | 198.7 ± 3.1
420.8 K | 200.4 ± 3.1
425.8 K | 202.2 ± 3.2
430.8 K | 204.5 ± 3.2
435.8 K | 207.1 ± 3.2
440.8 K | 209.5 ± 3.2
445.8 K | 211.6 ± 3.2
450.8 K | 213.8 ± 3.3
455.8 K | 215.9 ± 3.3
460.7 K | 218.2 ± 3.4
